According to article PMC7482398 (Molecular Pharmaceutics, 2020):
Read-outs that look alike come from different tables or passages of the source.

Key:
[1] = system: P-gp; conditions: cited from earlier work
[2] = cited from earlier work
[3] = system: P-gp function at the blood–brain barrier; conditions: rhesus monkey, in vivo
[4] = rats, 30 min after tracer injection; cited from earlier work
[5] = system: P-gp function at the BBB; conditions: cited from earlier work
[6] = rhesus monkey, in vivo
[7] = system: Escherichia coli; conditions: Escherichia coli mutation test; cited from earlier work
[8] = system: Salmonella typhimurium; conditions: Salmonella typhimurium mutation test; cited from earlier work
[9] = system: Sprague Dawley rats; conditions: male and female Sprague Dawley rats, 2.5 mg/kg body weight, 14 days of observation; cited from earlier work
[10] = after P-gp inhibition, tariquidar 8 mg/kg i.v. 30 min before PET

SMILES	VT (brain uptake at the baseline) ([1]; mice and rats, baseline)	transporter selectivity (P-gp vs BCRP) ([1]; ref Savolainen et al. (2017), 14)	log D [2]	change in K1 between baseline and after-inhibition [3]	increase of whole brain VT from 10 min to 91-min data [3] [%]	parent [18F]MC225 still available in plasma [4] [%]	K1 rats [5, 10]	VT rats [5, 10]	K1 rats ([5]; baseline scans) [mL/mL/min]	VT rats ([5]; baseline scans)	increase in K1 after tariquidar compared with baseline ([5]; rats)	increase in VT after tariquidar compared with baseline ([5]; rats)	whole brain K1 higher in tariquidar-treated rats than in control rats ([5]; rats) [%]	whole brain VT higher in tariquidar-treated rats than in control rats ([5]; rats) [%]	plasma radioactivity representing the parent tracer [6] [%]	difference in biological T1/2 and Ke between baseline and after-inhibition scans ([6]; 8 mg/kg)	mutagenic activity [7]	mutagenic activity [8]	toxicity [9]
COc1cc2c(cc1OC)CN(CCCC1CCCc3c(OCC[18F])cccc31)CC2 (stereo not shown) [[^18F]MC225]	6.6–11	selectively transported by P-gp and not by BCRP	3.0	42–44%	165	24	0.81	20	0.12	7.7	6–11 fold	2–4 fold	575	159	50	did not find significant differences			
COc1cc2c(cc1OC)CN(CCCC1CCCc3c(OCCF)cccc31)CC2 (stereo not shown) [MC225, 5-(1-(2-fluoroethoxy))-[3-(6,7-dimethoxy-3,4-dihydro-1H-isoquinolin-2-yl)-propyl]-5,6,7,8-tetrahydronaphthalen]																	did not reveal any mutagenic activity	did not reveal any mutagenic activity	did not cause toxicity
